Test results: US20260262643A1, “HERBICIDAL BENZOXAZINES” (FMC CORPORATION, priority 2022, published 2026)

Legend:
goosegrass [1] = assay: Test A postemergence; format: in vivo, Eleusine indica
Outline: (§1)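 Seeds in loam–sand blend received a directed preemergence soil spray of compound in non-phytotoxic solvent with surfactant; postemergence plants (2–10 cm, one- to two-leaf stage) were sprayed with the same formulation. After 10 days in greenhouse, injury was rated visually versus untreated controls, 0 (no effect) to 100 (complete control).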

ragweed [2] = assay: Test A preemergence; format: in vivo, Ambrosia artemisiifolia
Outline: as §1

foxtail, giant [3] = assay: Test A preemergence; format: in vivo, Setaria faberi
Outline: as §1

rice = assay: Test B flooded paddy test; format: in vivo, Oryza sativa; details: 250 g ai/ha, Flood, 13 days, 0 to 100 scale (0 no effect, 100 complete control)
Outline: (§2)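 Visual scores from 0 (no effect) to 100 (complete kill) were assigned 13 days after treatment by comparison with controls. Seedlings had been treated at two leaves by adding compound to floodwater standing 3 cm deep, kept at that level in the greenhouse.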

wheat [4] = assay: Test A preemergence; format: in vivo, Triticum aestivum
Outline: as §1

ryegrass, Italian [5] = assay: Test A preemergence; format: in vivo, Lolium multiflorum
Outline: as §1

pigweed, palmer [6] = assay: Test A postemergence; format: in vivo, Amaranthus palmeri
Outline: as §1

corn [7] = assay: Test A postemergence; format: in vivo, Zea mays
Outline: as §1

oat, wild [8] = assay: Test A preemergence; format: in vivo, Avena fatua
Outline: as §1

blackgrass [9] = assay: Test A postemergence; format: in vivo, Alopecurus myosuroides
Outline: as §1

corn [10] = assay: Test A preemergence; format: in vivo, Zea mays
Outline: as §1

sedge, umbrella = assay: Test B flooded paddy test; format: in vivo, Cyperus difformis; details: 250 g ai/ha, Flood, 13 days, 0 to 100 scale (0 no effect, 100 complete control)
Outline: as §2

pigweed, palmer [11] = assay: Test A preemergence; format: in vivo, Amaranthus palmeri
Outline: as §1

barnyardgrass = assay: Test B flooded paddy test; format: in vivo, Echinochloa crus-galli; details: 250 g ai/ha, Flood, 13 days, 0 to 100 scale (0 no effect, 100 complete control)
Outline: as §2

goosegrass [12] = assay: Test A preemergence; format: in vivo, Eleusine indica
Outline: as §1

soybean [13] = assay: Test A preemergence; format: in vivo, Glycine max
Outline: as §1

blackgrass [14] = assay: Test A preemergence; format: in vivo, Alopecurus myosuroides
Outline: as §1

ducksalad = assay: Test B flooded paddy test; format: in vivo, Heteranthera limosa; details: 250 g ai/ha, Flood, 13 days, 0 to 100 scale (0 no effect, 100 complete control)
Outline: as §2

soybean [15] = assay: Test A postemergence; format: in vivo, Glycine max
Outline: as §1

wheat [16] = assay: Test A postemergence; format: in vivo, Triticum aestivum
Outline: as §1

oat, wild [17] = assay: Test A postemergence; format: in vivo, Avena fatua
Outline: as §1

kochia [18] = assay: Test A preemergence; format: in vivo, Bassia scoparia
Outline: as §1

galium = assay: Test A postemergence; format: in vivo, Galium aparine
Outline: as §1

ragweed [19] = assay: Test A postemergence; format: in vivo, Ambrosia artemisiifolia
Outline: as §1

foxtail, giant [20] = assay: Test A postemergence; format: in vivo, Setaria faberi
Outline: as §1

ryegrass, Italian [21] = assay: Test A postemergence; format: in vivo, Lolium multiflorum
Outline: as §1

kochia [22] = assay: Test A postemergence; format: in vivo, Bassia scoparia
Outline: as §1

[23] = 125 g ai/ha, postemergence, 10 days, visual injury, 0 to 100 scale (0 no effect, 100 complete control)
[24] = 500 g ai/ha, Postemergence, 0 to 100 scale
[25] = 125 g ai/ha, visual injury after 10 days, 0 to 100 scale, 0 is no effect, 100 is complete control
[26] = 500 g ai/ha, 0 to 100 scale (0 no effect, 100 complete control), 10 days

**Q.** Which results are given for `CCc1cccc2c1OC(C)CN2C(=O)c1cccc(-n2cncn2)c1` (stereo not drawn) [Compound 43]?
**A.** Plant response rating, Goosegrass (goosegrass [1]; [23]): 0; Plant response rating, Goosegrass (goosegrass [1]; [24]): 40; Plant response rating, Ragweed (ragweed [2]; [25]): 0; Plant response rating, Ragweed (ragweed [2]; [26]): 20; Plant response rating, Foxtail, Giant (foxtail, giant [3]; [25]): 60; Plant response rating, Foxtail, Giant (foxtail, giant [3]; [26]): 90; Plant response rating, Rice (rice): 0; Plant response rating, Wheat (wheat [4]; [25]): 0; Plant response rating, Wheat (wheat [4]; [26]): 10; Plant response rating, Ryegrass, Italian (ryegrass, Italian [5]; [25]): 60; Plant response rating, Ryegrass, Italian (ryegrass, Italian [5]; [26]): 90; Plant response rating, Pigweed, Palmer (pigweed, palmer [6]; [23]): 50; Plant response rating, Pigweed, Palmer (pigweed, palmer [6]; [24]): 20; Plant response rating, Corn (corn [7]; [23]): 10; Plant response rating, Corn (corn [7]; [24]): 30; Plant response rating, Oat, Wild (oat, wild [8]; [25]): 20; Plant response rating, Oat, Wild (oat, wild [8]; [26]): 90; Plant response rating, Blackgrass (blackgrass [9]; [23]): 0; Plant response rating, Blackgrass (blackgrass [9]; [24]): 0; Plant response rating, Corn (corn [10]; [25]): 10; Plant response rating, Corn (corn [10]; [26]): 20; Plant response rating, Sedge, Umbrella (sedge, umbrella): 0; Plant response rating, Pigweed, Palmer (pigweed, palmer [11]; [25]): 0; Plant response rating, Pigweed, Palmer (pigweed, palmer [11]; [26]): 80; Plant response rating, Barnyardgrass (barnyardgrass): 0; Plant response rating, Goosegrass (goosegrass [12]; [25]): 60; Plant response rating, Goosegrass (goosegrass [12]; [26]): 90; Plant response rating, Soybean (soybean [13]; [26]): 40; Plant response rating, Blackgrass (blackgrass [14]; [25]): 10; Plant response rating, Blackgrass (blackgrass [14]; [26]): 40; Plant response rating, Ducksalad (ducksalad): 0; Plant response rating, Soybean (soybean [15]; [23]): 80; Plant response rating, Soybean (soybean [15]; [24]): 100; Plant response rating, Wheat (wheat [16]; [23]): 10; Plant response rating, Wheat (wheat [16]; [24]): 30; Plant response rating, Oat, Wild (oat, wild [17]; [23]): 0; Plant response rating, Oat, Wild (oat, wild [17]; [24]): 20; Plant response rating, Kochia (kochia [18]; [25]): 0; Plant response rating, Kochia (kochia [18]; [26]): 0; Plant response rating, Galium (galium; [23]): 30; Plant response rating, Galium (galium; [24]): 60; Plant response rating, Ragweed (ragweed [19]; [23]): 0; Plant response rating, Ragweed (ragweed [19]; [24]): 0; Plant response rating, Foxtail, Giant (foxtail, giant [20]; [23]): 10; Plant response rating, Foxtail, Giant (foxtail, giant [20]; [24]): 70; Plant response rating, Ryegrass, Italian (ryegrass, Italian [21]; [23]): 30; Plant response rating, Ryegrass, Italian (ryegrass, Italian [21]; [24]): 60; Plant response rating, Kochia (kochia [22]; [23]): 10; Plant response rating, Kochia (kochia [22]; [24]): 30

**Q.** Which “Plant response rating, Goosegrass” value (goosegrass [1]; [23]) does the source give for `Cc1cc(F)cc2c1OC(C)CN2C(=O)c1cccc(-n2cncn2)c1` (stereo not drawn) [Compound 44] here?
**A.** The value was 30.

**Q.** What about the “Plant response rating, Goosegrass” value (goosegrass [1]; [24]) of the same compound?
**A.** The value was 70.

**Q.** And the “Plant response rating, Ragweed” value (ragweed [2]; [25])?
**A.** Its value is 0.

**Q.** What about the “Plant response rating, Ragweed” value (ragweed [2]; [26]) of the same compound?
**A.** Its value is 0.

**Q.** What about the “Plant response rating, Foxtail, Giant” value (foxtail, giant [3]; [25]) of the same compound?
**A.** Its value is 70.

**Q.** And the “Plant response rating, Foxtail, Giant” value (foxtail, giant [3]; [26])?
**A.** Its value is 100.

**Q.** What about the “Plant response rating, Rice” value (rice) of the same compound?
**A.** Its value is 0.

**Q.** And the “Plant response rating, Wheat” value (wheat [4]; [25])?
**A.** The value was 0.

**Q.** And the “Plant response rating, Wheat” value (wheat [4]; [26])?
**A.** The value was 40.

**Q.** What about the “Plant response rating, Ryegrass, Italian” value (ryegrass, Italian [5]; [25]) of the same compound?
**A.** The value was 80.

**Q.** What about the “Plant response rating, Ryegrass, Italian” value (ryegrass, Italian [5]; [26]) of the same compound?
**A.** Its value is 100.

**Q.** And the “Plant response rating, Pigweed, Palmer” value (pigweed, palmer [6]; [23])?
**A.** The value was 30.

**Q.** What about the “Plant response rating, Pigweed, Palmer” value (pigweed, palmer [6]; [24]) of the same compound?
**A.** The value was 10.

**Q.** And the “Plant response rating, Corn” value (corn [7]; [23])?
**A.** The value was 30.

**Q.** And the “Plant response rating, Corn” value (corn [7]; [24])?
**A.** Its value is 70.

**Q.** And the “Plant response rating, Oat, Wild” value (oat, wild [8]; [25])?
**A.** The value was 10.

**Q.** What about the “Plant response rating, Oat, Wild” value (oat, wild [8]; [26]) of the same compound?
**A.** Its value is 50.

**Q.** What about the “Plant response rating, Blackgrass” value (blackgrass [9]; [23]) of the same compound?
**A.** Its value is 30.

**Q.** And the “Plant response rating, Blackgrass” value (blackgrass [9]; [24])?
**A.** Its value is 60.

**Q.** And the “Plant response rating, Corn” value (corn [10]; [25])?
**A.** The value was 10.

**Q.** And the “Plant response rating, Corn” value (corn [10]; [26])?
**A.** The value was 30.

**Q.** And the “Plant response rating, Sedge, Umbrella” value (sedge, umbrella)?
**A.** The value was 0.

**Q.** What about the “Plant response rating, Pigweed, Palmer” value (pigweed, palmer [11]; [25]) of the same compound?
**A.** The value was 10.

**Q.** What about the “Plant response rating, Pigweed, Palmer” value (pigweed, palmer [11]; [26]) of the same compound?
**A.** Its value is 20.

**Q.** And the “Plant response rating, Barnyardgrass” value (barnyardgrass)?
**A.** The value was 0.

**Q.** And the “Plant response rating, Goosegrass” value (goosegrass [12]; [25])?
**A.** Its value is 90.

**Q.** What about the “Plant response rating, Goosegrass” value (goosegrass [12]; [26]) of the same compound?
**A.** Its value is 100.

**Q.** And the “Plant response rating, Soybean” value (soybean [13]; [25])?
**A.** The value was 40.

**Q.** And the “Plant response rating, Soybean” value (soybean [13]; [26])?
**A.** Its value is 70.

**Q.** What about the “Plant response rating, Blackgrass” value (blackgrass [14]; [25]) of the same compound?
**A.** Its value is 10.

**Q.** What about the “Plant response rating, Blackgrass” value (blackgrass [14]; [26]) of the same compound?
**A.** The value was 80.

**Q.** What about the “Plant response rating, Ducksalad” value (ducksalad) of the same compound?
**A.** The value was 0.

**Q.** What about the “Plant response rating, Soybean” value (soybean [15]; [23]) of the same compound?
**A.** The value was 100.

**Q.** What about the “Plant response rating, Soybean” value (soybean [15]; [24]) of the same compound?
**A.** Its value is 100.

**Q.** What about the “Plant response rating, Wheat” value (wheat [16]; [23]) of the same compound?
**A.** The value was 30.

**Q.** What about the “Plant response rating, Wheat” value (wheat [16]; [24]) of the same compound?
**A.** Its value is 80.

**Q.** And the “Plant response rating, Oat, Wild” value (oat, wild [17]; [23])?
**A.** The value was 0.

**Q.** What about the “Plant response rating, Oat, Wild” value (oat, wild [17]; [24]) of the same compound?
**A.** Its value is 80.

**Q.** And the “Plant response rating, Kochia” value (kochia [18]; [25])?
**A.** The value was 0.

**Q.** What about the “Plant response rating, Kochia” value (kochia [18]; [26]) of the same compound?
**A.** Its value is 20.

**Q.** And the “Plant response rating, Galium” value (galium; [23])?
**A.** Its value is 50.

**Q.** What about the “Plant response rating, Galium” value (galium; [24]) of the same compound?
**A.** Its value is 70.

**Q.** What about the “Plant response rating, Ragweed” value (ragweed [19]; [23]) of the same compound?
**A.** The value was 0.

**Q.** And the “Plant response rating, Ragweed” value (ragweed [19]; [24])?
**A.** Its value is 0.

**Q.** And the “Plant response rating, Foxtail, Giant” value (foxtail, giant [20]; [23])?
**A.** Its value is 40.

**Q.** And the “Plant response rating, Foxtail, Giant” value (foxtail, giant [20]; [24])?
**A.** Its value is 90.

**Q.** What about the “Plant response rating, Ryegrass, Italian” value (ryegrass, Italian [21]; [23]) of the same compound?
**A.** Its value is 50.

**Q.** What about the “Plant response rating, Ryegrass, Italian” value (ryegrass, Italian [21]; [24]) of the same compound?
**A.** Its value is 80.

**Q.** And the “Plant response rating, Kochia” value (kochia [22]; [23])?
**A.** Its value is 10.

**Q.** What about the “Plant response rating, Kochia” value (kochia [22]; [24]) of the same compound?
**A.** The value was 20.
